Patent US12606578B2, “Crystal form of spirocyclic amine aryl phosphorus oxide compound and preparation method therefor” (Qilu Pharmaceutical Co., LTD., priority 2022, dated 2026)
Values after ≈ are worked out from the molar mass of the structure shown.

What was measured:
[1] = Particle size analysis (PSA); assay type: physicochemical
Procedure: Malvern's laser scattering particle size distribution analyzer was used to analyze the particle size of solid powder. An appropriate amount of solid powder was taken into a sampler, the samples were tested according to the parameters listed in Table 5, and the data was analyzed by Mastersizer-v3.60.

[2] = Flow ability test (bulk density, tap density, Carr index); assay type: physicochemical
Procedure: The tap density was measured by SVM203 Tapped Density Meter.
Bulk density and tap density of bulk drugs with different crystal forms and particle sizes were tested, and Carr index was calculated.
Therefore, compared with the crystal form A, the crystal form Q4 has obvious advantages in terms of powder mixing uniformity of bulk drugs and the preparation of solid preparations.

[3] = disclosed in reference CN110407877, 90% RH; cited from earlier work
[4] = Equilibrium solubility in four media with XRPD of the solids; assay type: physicochemical; conditions: for solubility at 24 h: 37 °C, thermodynamic from solid; for solubility at 24 h / Solubility: 200 rpm; for Crystal transformation before and after the solubility test: four media, XRPD; for Crystal transformation before and after the solubility test / Solubility: 37° C.; for solubility at 24 h / Crystal transformation before and after the solubility test / Solubility: 24 h
Procedure: At 37° C., appropriate amounts of the crystal form Q4 and crystal form A of the compound of Formula (I) were taken and dispersed in water, artificial gastric fluid (SGF, Simulated Gastric Fluid), artificial intestinal fluid under fed state (FeSSIF, Fed State Simulated Intestinal Fluid) and artificial intestinal fluid under fasted state (FaSSIF, Fasted State Simulated Intestinal Fluid) respectively to prepare suspension, and after equilibration at 200 rpm for 24 h, the content (mg/mL) of the sample in the solution were tested by HPLC and the samples in the solution were tested by XRPD, respectively.

[5] = Stability test under high temperature, high humidity and light (HPLC purity, XRPD); assay type: physicochemical; conditions: for Purity: HPLC; for Crystal form: XRPD
Procedure: Determination of HPLC is performed by Waters e2695 high performance liquid chromatograph to analyze the samples.
The stability of the crystal form Q4 of the compound of Formula (I) under high temperature, high humidity and light conditions was investigated. After placing for 5 days and 10 days under specific conditions, purity was tested by HPLC, and XRPD was performed.

[6] = Hydroscopicity experiment (DVS water sorption/desorption); assay type: physicochemical
Source text: Description of hydroscopicity characteristics and definition of hygroscopic weight gain (Chinese Pharmacopoeia 2020 Edition, General Chapter 9103, Guidelines for Hydroscopicity Trials for Pharmaceuticals): • Deliquescence: absorb enough water to form liquid; • Extremely hygroscopic: the hygroscopic weight gain is not less than 15.0%; • Hygroscopic: hygroscopic weight gain is less than 15.0% but not less than 2.0%; • Mild hygroscopic: hygroscopic weight gain is less than 2.0% but not less than 0.2%; • Non-or almost non-hygroscopic: the hygroscopic weight gain is less than 0.2%.
The hydroscopicity of the samples was determined using a DVS Intrinsic dynamic vapor sorption analyzer. The samples were placed in a peeled sample basket, the instrument weighed automatically, and the samples were analyzed according to the parameters in Table 4.
According to “Guidelines for Hydroscopicity Trials for Pharmaceuticals” in Chinese Pharmacopoeia 2020 Edition, the data of water sorption/desorption of the crystal form Q4 of the compound of Formula (I) were tested.

[7] = bulk drugs of substantially the same particle size used in flow ability test
[8] = bulk drug D90 69.2 μm (Q4), 62 μm (A)

COc1cc(N2CCC3(CCN(C)CC3)CC2)ccc1Nc1ncc(Cl)c(Nc2ccccc2P(C)(C)=O)n1 [Crystal form A, reference compound]
Particle size of bulk D90 [1, 7]: 62 μm
Bulk density [2, 8]: 0.48 g/mL
Carr index: (tap density-bulk density)/tap density [2, 8]: 31.43%
Evaluation (flow ability) [2, 8]: poor flow
Tap density [2, 8]: 0.70 g/mL
Weight gain under 90% RH humidity condition [3]: 0.17%
solubility at 24 h ([4]; fasted state simulated intestinal fluid (FaSSIF), pH 6.5, fassif, FaSSIF (pH 6.5)): 4560 µg/mL (≈ 8.01 mM)
solubility at 24 h ([4]; fed state simulated intestinal fluid (FeSSIF), pH 5, fessif, FeSSIF (pH 5.0)): 23600 µg/mL (≈ 41.5 mM)
Crystal transformation before and after the solubility test [4]: do not transform before and after the test
solubility at 24 h ([4]; simulated gastric fluid (SGF), pH 1.8, simulated gastric fluid, SGF (pH 1.8)): 9300 µg/mL (≈ 16.3 mM)
solubility at 24 h ([4]; water): 40 µg/mL (≈ 0.0703 mM)

COc1cc(N2CCC3(CCN(C)CC3)CC2)ccc1Nc1ncc(Cl)c(Nc2ccccc2P(C)(C)=O)n1 [Crystal form C]
Weight gain under 90% RH humidity condition [3]: 0.62%

COc1cc(N2CCC3(CCN(C)CC3)CC2)ccc1Nc1ncc(Cl)c(Nc2ccccc2P(C)(C)=O)n1 [Crystal form B]
Weight gain under 90% RH humidity condition [3]: 0.70%

COc1cc(N2CCC3(CCN(C)CC3)CC2)ccc1Nc1ncc(Cl)c(Nc2ccccc2P(C)(C)=O)n1 [Crystal form Q4]
D10 ([1]; PSA, Example 3 batch): 10.8 μm
D50 ([1]; PSA, Example 3 batch): 62.6 μm
D90 ([1]; PSA, Example 3 batch): 145.2 μm
Particle size of bulk D90 [1, 7]: 69.2 μm
Particle size of bulk D90 ([1]; larger particle size Q4 bulk drug used in flow ability test): 145.2 μm
Bulk density [2, 8]: 0.28 g/mL
Carr index: (tap density-bulk density)/tap density [2, 8]: 24.32%
Evaluation (flow ability) [2, 8]: fair flow
Tap density [2, 8]: 0.37 g/mL
Bulk density ([2]; bulk drug D90 145.2 μm): 0.42 g/mL
Carr index: (tap density-bulk density)/tap density ([2]; bulk drug D90 145.2 μm): 17.65%
Evaluation (flow ability) ([2]; bulk drug D90 145.2 μm): good or medium (16 to 20%)
Tap density ([2]; bulk drug D90 145.2 μm): 0.51 g/mL
Flow ability compared with the crystal form A ([2]; substantially the same particle size): better flow ability compared with the crystal form A
Related substances: Impurity LG RRT = 1.98 ([5]; 40° C.-5 D): 0.04%
Related substances: Impurity LO RRT = 0.89 ([5]; 40° C.-5 D): 0.01%
Related substances: Impurity LP RRT = 1.16 ([5]; 40° C.-5 D): 0.02%
Related substances: Impurity QA RRT = 0.95 ([5]; 40° C.-5 D): 0.01%
Purity ([5]; 40° C.-5 D): 99.88%
Crystal form ([5]; 40° C.-5 D): form Q4
Related substances: Impurity LG RRT = 1.98 ([5]; 40° C.-10 D): 0.04%
Related substances: Impurity LO RRT = 0.89 ([5]; 40° C.-10 D): 0.01%
Related substances: Impurity LP RRT = 1.16 ([5]; 40° C.-10 D): 0.03%
Related substances: Impurity QA RRT = 0.95 ([5]; 40° C.-10 D): 0.01%
Purity ([5]; 40° C.-10 D): 99.87%
Crystal form ([5]; 40° C.-10 D): form Q4
Related substances: Impurity LG RRT = 1.98 ([5]; 60° C.-5 D): 0.04%
Related substances: Impurity LO RRT = 0.89 ([5]; 60° C.-5 D): 0.01%
Related substances: Impurity LP RRT = 1.16 ([5]; 60° C.-5 D): 0.02%
Related substances: Impurity QA RRT = 0.95 ([5]; 60° C.-5 D): 0.01%
Purity ([5]; 60° C.-5 D): 99.86%
Crystal form ([5]; 60° C.-5 D): form Q4
Related substances: Impurity LG RRT = 1.98 ([5]; 60° C.-10 D): 0.04%
Related substances: Impurity LO RRT = 0.89 ([5]; 60° C.-10 D): 0.01%
Related substances: Impurity LP RRT = 1.16 ([5]; 60° C.-10 D): 0.02%
Related substances: Impurity QA RRT = 0.95 ([5]; 60° C.-10 D): 0.01%
Purity ([5]; 60° C.-10 D): 99.88%
Crystal form ([5]; 60° C.-10 D): form Q4
Related substances: Impurity LG RRT = 1.98 ([5]; 75RH-5 D): 0.04%
Related substances: Impurity LO RRT = 0.89 ([5]; 75RH-5 D): 0.01%
Related substances: Impurity LP RRT = 1.16 ([5]; 75RH-5 D): 0.01%
Related substances: Impurity QA RRT = 0.95 ([5]; 75RH-5 D): 0.01%
Purity ([5]; 75RH-5 D): 99.88%
Crystal form ([5]; 75RH-5 D): form Q4
Related substances: Impurity LG RRT = 1.98 ([5]; 75RH-10 D): 0.04%
Related substances: Impurity LO RRT = 0.89 ([5]; 75RH-10 D): 0.01%
Related substances: Impurity LP RRT = 1.16 ([5]; 75RH-10 D): 0.02%
Related substances: Impurity QA RRT = 0.95 ([5]; 75RH-10 D): 0.01%
Purity ([5]; 75RH-10 D): 99.88%
Crystal form ([5]; 75RH-10 D): form Q4
Related substances: Impurity LG RRT = 1.98 ([5]; 90RH-5 D): 0.04%
Related substances: Impurity LO RRT = 0.89 ([5]; 90RH-5 D): 0.02%
Related substances: Impurity LP RRT = 1.16 ([5]; 90RH-5 D): 0.01%
Related substances: Impurity QA RRT = 0.95 ([5]; 90RH-5 D): 0.01%
Purity ([5]; 90RH-5 D): 99.87%
Crystal form ([5]; 90RH-5 D): form Q4
Related substances: Impurity LG RRT = 1.98 ([5]; 90RH-10 D): 0.04%
Related substances: Impurity LO RRT = 0.89 ([5]; 90RH-10 D): 0.01%
Related substances: Impurity LP RRT = 1.16 ([5]; 90RH-10 D): 0.03%
Related substances: Impurity QA RRT = 0.95 ([5]; 90RH-10 D): 0.01%
Purity ([5]; 90RH-10 D): 99.83%
Crystal form ([5]; 90RH-10 D): form Q4
Related substances: Impurity LG RRT = 1.98 ([5]; Light-5 D): 0.04%
Related substances: Impurity LO RRT = 0.89 ([5]; Light-5 D): 0.03%
Related substances: Impurity LP RRT = 1.16 ([5]; Light-5 D): 0.02%
Related substances: Impurity QA RRT = 0.95 ([5]; Light-5 D): 0.01%
Purity ([5]; Light-5 D): 99.82%
Crystal form ([5]; Light-5 D): form Q4
Related substances: Impurity LG RRT = 1.98 ([5]; Light-10 D): 0.03%
Related substances: Impurity LO RRT = 0.89 ([5]; Light-10 D): 0.03%
Related substances: Impurity LP RRT = 1.16 ([5]; Light-10 D): 0.02%
Related substances: Impurity QA RRT = 0.95 ([5]; Light-10 D): 0.01%
Purity ([5]; Light-10 D): 99.86%
Crystal form ([5]; Light-10 D): form Q4
Related substances: Impurity LG RRT = 1.98 ([5]; Start): 0.03%
Related substances: Impurity LO RRT = 0.89 ([5]; Start): 0.01%
Related substances: Impurity LP RRT = 1.16 ([5]; Start): 0.02%
Related substances: Impurity QA RRT = 0.95 ([5]; Start): 0.01%
Purity ([5]; Start): 99.90%
Crystal form ([5]; Start): form Q4
Degradation / stability ([5]; high temperature, high humidity and light conditions, 5 and 10 days): no obvious degradation
Evaluation of hydroscopicity ([6]; Chinese Pharmacopoeia 2020 criteria, weight gain at 80% RH): non- or almost non-hygroscopic
80% RH weight gain ([6]; DVS, 80% RH): 0.10%
90% RH weight gain ([6]; DVS, 90% RH): 0.12%
Crystal transformation, XRPD before and after DVS test ([6]; before and after DVS test): no crystal transformation before and after the test
Hydroscopicity compared with the crystal forms A, B and C ([6]; hygroscopic weight gain comparison): less hydroscopicity than the crystal forms A, B and C
Solubility compared with the crystal form A ([4]; FaSSIF): better than that of the crystal form A
Solubility ([4]; FaSSIF (pH 6.5)): 5750 µg/mL (≈ 10.1 mM)
Solubility ([4]; FeSSIF (pH 5.0)): 23560 µg/mL (≈ 41.4 mM)
Solubility ([4]; SGF (pH 1.8)): 9280 µg/mL (≈ 16.3 mM)
Solubility ([4]; Water): 40 µg/mL (≈ 0.0703 mM)
Crystal transformation before and after the solubility test [4]: do not transform before and after the test
